Results from the supplement of paper PMC9005190.

How the values were obtained:
PAR1 [1] = target: T1, PAR1 (UniProt P25116); assay: Emax (maximal agonist-induced change in ebBRET relative to vehicle) (% of vehicle response (amplitude of change)); higher = larger response (for Gs, larger decrease in membrane ebBRET, i.e. stronger Gs activation)
T1 sequence (whole entry): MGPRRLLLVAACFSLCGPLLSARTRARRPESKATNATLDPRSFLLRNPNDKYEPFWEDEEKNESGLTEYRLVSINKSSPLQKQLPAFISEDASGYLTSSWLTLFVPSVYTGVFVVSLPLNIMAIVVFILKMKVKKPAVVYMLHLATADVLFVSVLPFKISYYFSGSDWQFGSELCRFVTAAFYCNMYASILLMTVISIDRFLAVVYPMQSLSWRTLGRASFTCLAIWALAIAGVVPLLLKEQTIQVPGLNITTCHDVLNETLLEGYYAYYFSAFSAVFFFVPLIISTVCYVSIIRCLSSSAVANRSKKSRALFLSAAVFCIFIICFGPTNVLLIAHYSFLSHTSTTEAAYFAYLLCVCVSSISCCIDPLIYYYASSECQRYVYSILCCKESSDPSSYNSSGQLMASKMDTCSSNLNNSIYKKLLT

PAR1 [2] = target: T1, PAR1; assay: pEC50 of agonist-induced pathway activation (ebBRET)
P2Y2 [3] = target: P2Y2 (UniProt P41231); assay: Emax (maximal agonist-induced change in ebBRET relative to vehicle) (% of vehicle response (amplitude of change)); higher = larger response (for Gs, larger decrease in membrane ebBRET, i.e. stronger Gs activation)
Chain of P2Y2 (P41231 whole entry): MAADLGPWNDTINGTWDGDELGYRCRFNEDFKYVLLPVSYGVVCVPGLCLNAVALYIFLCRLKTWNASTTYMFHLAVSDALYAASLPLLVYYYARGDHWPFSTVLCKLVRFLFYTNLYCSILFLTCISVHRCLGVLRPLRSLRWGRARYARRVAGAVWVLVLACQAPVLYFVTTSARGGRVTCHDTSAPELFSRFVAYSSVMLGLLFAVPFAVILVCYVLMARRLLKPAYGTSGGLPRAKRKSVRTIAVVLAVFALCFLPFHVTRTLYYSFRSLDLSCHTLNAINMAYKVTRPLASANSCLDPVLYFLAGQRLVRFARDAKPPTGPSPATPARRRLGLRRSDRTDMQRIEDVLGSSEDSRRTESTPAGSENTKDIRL

P2Y2 [4] = target: P2Y2 (UniProt P41231); assay: pEC50 of agonist-induced pathway activation (ebBRET)
GPR39 [5] = target: T2, GPR39 (UniProt O43194); assay: Emax (maximal agonist-induced change in ebBRET relative to vehicle) (% of vehicle response (amplitude of change)); higher = larger response (for Gs, larger decrease in membrane ebBRET, i.e. stronger Gs activation)
T2 sequence (whole entry): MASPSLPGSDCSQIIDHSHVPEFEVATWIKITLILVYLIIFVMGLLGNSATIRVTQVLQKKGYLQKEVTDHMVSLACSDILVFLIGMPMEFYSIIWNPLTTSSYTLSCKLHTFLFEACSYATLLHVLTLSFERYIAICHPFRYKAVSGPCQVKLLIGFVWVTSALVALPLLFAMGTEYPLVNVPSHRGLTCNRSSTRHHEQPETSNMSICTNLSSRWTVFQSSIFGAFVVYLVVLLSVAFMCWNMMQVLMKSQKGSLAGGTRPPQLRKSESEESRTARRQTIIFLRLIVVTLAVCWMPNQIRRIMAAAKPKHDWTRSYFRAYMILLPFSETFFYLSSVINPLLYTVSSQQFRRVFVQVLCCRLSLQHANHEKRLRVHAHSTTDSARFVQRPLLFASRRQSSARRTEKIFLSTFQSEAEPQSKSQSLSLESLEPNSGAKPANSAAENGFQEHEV

GPR39 [6] = target: T2, GPR39; assay: pEC50 of agonist-induced pathway activation (ebBRET)
FFA4 [7] = assay: Emax (maximal agonist-induced change in ebBRET relative to vehicle) (% of vehicle response (amplitude of change)); higher = larger response (for Gs, larger decrease in membrane ebBRET, i.e. stronger Gs activation)
FFA4 [8] = assay: pEC50 of agonist-induced pathway activation (ebBRET)

CC(C)C[C@H](NC(=O)[C@H](CC(C)C)NC(=O)[C@H](Cc1ccccc1)NC(=O)[C@@H](N)[C@@H](C)O)C(=O)N[C@@H](CCCN=C(N)N)C(N)=O [TFLLR-NH2]
Conditions | Emax, PAR1 [1] | pEC50, PAR1 [2]
pathway (G protein / arrestin sensor): G11 | 382 | 6.55
pathway (G protein / arrestin sensor): G13 | 193 | 7.11
pathway (G protein / arrestin sensor): G14 | 405 | 5.74
pathway (G protein / arrestin sensor): G15 | 332 | 6.22
pathway (G protein / arrestin sensor): Gi1 | 574 | 4
pathway (G protein / arrestin sensor): Gi2 | 177 | 5.04
pathway (G protein / arrestin sensor): GoA | 73 | 5.89
pathway (G protein / arrestin sensor): GoB | 221 | 6
pathway (G protein / arrestin sensor): Gq | 238 | 6.72
pathway (G protein / arrestin sensor): Gz | 144 | 6.41
pathway (G protein / arrestin sensor): βarr1/GRK2 | 446 | 5.08
pathway (G protein / arrestin sensor): βarr2 | 439 | 5.12
pathway (G protein / arrestin sensor): βarr2/GRK2 | 470 | 5.18

O=c1ccn([C@@H]2O[C@H](COP(=O)(O)OP(=O)(O)OP(=O)(O)O)[C@@H](O)[C@H]2O)c(=O)[nH]1 [UTP]
Conditions | Emax, P2Y2 [3] | pEC50, P2Y2 [4]
pathway (G protein / arrestin sensor): G11 | 26.1 | 6.43
pathway (G protein / arrestin sensor): G14 | 26.7 | 6.29
pathway (G protein / arrestin sensor): G15 | 198 | 6.08
pathway (G protein / arrestin sensor): Gi1 | 59.2 | 6.29
pathway (G protein / arrestin sensor): Gi2 | 25.9 | 6.54
pathway (G protein / arrestin sensor): GoA | 85.7 | 5.94
pathway (G protein / arrestin sensor): GoB | 54.5 | 6.37
pathway (G protein / arrestin sensor): Gq | 29.2 | 6.4
pathway (G protein / arrestin sensor): Gz | 91.8 | 6.04
pathway (G protein / arrestin sensor): βarr1/GRK2 | 185 | 5.24
pathway (G protein / arrestin sensor): βarr2 | 346 | 4.99
pathway (G protein / arrestin sensor): βarr2/GRK2 | 94.7 | 5.36

[Cl][Zn][Cl] [Zn2+]
Conditions | Emax, GPR39 [5] | pEC50, GPR39 [6]
pathway (G protein / arrestin sensor): G11 | 136 | 4.21
pathway (G protein / arrestin sensor): G13 | 120 | 5.39
pathway (G protein / arrestin sensor): G14 | 210 | 4.25
pathway (G protein / arrestin sensor): G15 | 37.6 | 4.38
pathway (G protein / arrestin sensor): Gi1 | 254 | 4.1
pathway (G protein / arrestin sensor): Gi2 | 80.9 | 4.19
pathway (G protein / arrestin sensor): GoA | 137 | 4.16
pathway (G protein / arrestin sensor): GoB | 197 | 4.25
pathway (G protein / arrestin sensor): Gq | 113 | 4.48
pathway (G protein / arrestin sensor): βarr2 | 61.7 | 4.03
pathway (G protein / arrestin sensor): βarr2/GRK2 | 41.4 | 4.02

CC/C=C\C/C=C\C/C=C\CCCCCCCC(=O)O [α-linolenic acid]
Conditions | Emax, FFA4 [7] | pEC50, FFA4 [8]
pathway (G protein / arrestin sensor): G11 | 288 | 5.08
pathway (G protein / arrestin sensor): G13 | 120 | 4.8
pathway (G protein / arrestin sensor): G14 | 297 | 5.5
pathway (G protein / arrestin sensor): G15 | 476 | 5.53
pathway (G protein / arrestin sensor): Gi1 | 35 | 6.12
pathway (G protein / arrestin sensor): Gi2 | 23.3 | 6.31
pathway (G protein / arrestin sensor): GoA | 64 | 5.6
pathway (G protein / arrestin sensor): GoB | 30.2 | 6.27
pathway (G protein / arrestin sensor): Gq | 198 | 5.1
pathway (G protein / arrestin sensor): βarr1/GRK2 | 1090 | 4.7
pathway (G protein / arrestin sensor): βarr2 | 993 | 4.94
pathway (G protein / arrestin sensor): βarr2/GRK2 | 999 | 4.87
